Like-named read-outs stand apart in the source and are kept apart here. Starred links: 1 amine or outer side, 2 acyl side, 3 side chain; linkers in the order of their positions; H or OH if unused. Non-standard residues stand in square brackets, D forms with d. Residues, ends and D or L forms follow the SMILES beside them. LeuΨ(S-CHOHCH2)Ala = CC(C)C[C@H](N[*:1])[C@@H](O)C[C@@H](C)C(=O)[*:2]
Columns and labels:
[1] = target: T1, BACE-2 (human, recombinant) (Homo sapiens, UniProt Q9Y5Z0); experiment: BACE-2 activity assay (fluorogenic substrate, HPLC-FLU); type: biochemical; settings: pH 4.5, 37° C.; mean value ± standard deviation, n = 3; read-out: Ki^app BACE-2
T1 construct: purchased Enzo
T1 sequence (Q9Y5Z0 63-518): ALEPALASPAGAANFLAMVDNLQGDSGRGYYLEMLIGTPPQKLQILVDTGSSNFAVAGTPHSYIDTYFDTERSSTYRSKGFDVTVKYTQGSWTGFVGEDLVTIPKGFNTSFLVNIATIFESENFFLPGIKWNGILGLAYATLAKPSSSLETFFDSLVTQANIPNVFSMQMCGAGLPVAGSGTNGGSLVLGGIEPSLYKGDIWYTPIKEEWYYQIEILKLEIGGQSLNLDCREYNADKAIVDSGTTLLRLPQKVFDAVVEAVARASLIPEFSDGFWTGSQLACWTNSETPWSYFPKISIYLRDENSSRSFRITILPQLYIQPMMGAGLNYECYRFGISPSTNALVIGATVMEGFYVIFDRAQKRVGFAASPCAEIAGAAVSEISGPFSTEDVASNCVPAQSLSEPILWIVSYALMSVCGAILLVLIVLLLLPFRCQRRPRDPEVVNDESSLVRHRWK

[2] = design: species or system Wistar rats; settings: in vivo, iv; for detection in serum samples: rat
Experimental: Female mice (n=12, 8-12 weeks, weighing 22-37 g) and male Wistar rats (n=8, 8-12 weeks, weighing 182-201 g) were purchased from Harlan Ibérica, Barcelona, Spain. All animals received a standard diet and water ad libitum. Experiments were conducted according to the Home Office Guidance in the Operation of Animals (Scientific Procedures) Act 1986, published by Her Majesty's Stationary Office, London, UK and the Institutional Animal Research Committee Guide for the Care and Use of Laboratory Animals published by the US National Institutes of Health (NIH Publication No. 85-23, revised 1996), as well as to the currently adopted EC regulations (2010/63/EU). Finally, the studies are in compliance with the ARRIVE Guidelines for Reporting Animal Research' summarized at www.nc3rs.org.uk. Before experiments animals were fasted for 24 h.
PBS was used to prepare a solution of Ia for intravenous administration at a dose of 0.53 mg/kg. Experiments were done in triplicate. Mice and Wistar rats were sacrificed at 0.5, 1 and 2 hours after dosing and were previously anesthetized with sodium pentobarbital (6 mg/kg i.p.) for collection of blood by cardiac puncture and brain tissue was perfused by intraventricular injection of 10 mL of chilled saline solution to remove residual blood.
Serum was isolated from the blood samples by centrifugation at 657 g for 10 min, at 4° C. Serum proteins were precipitated with one volume of acetonitrile and were removed by centrifugation at 14000 g for 10 min. Brain was promptly removed and washed with PBS and blotted dry. Meninges were carefully removed. In the case of Wistar rats only cortex and hippocampus were collected while for mice the whole brain was used. The brain samples were homogenized with 2 volumes (V/w) of PBS/acetonitrile/Triton X-100 (50/50/0.5) using firstly a pestle and then a pipette and finally a sonicator. Compound Ic was added as internal standard to best mimic the recovery of compound Ia. The pellet was removed centrifuging at 14000 g for 10 min. Samples were purified by preparative reverse-phase HPLC Using a C18 column (Jupiter, Phenomenex) 250×21.2 mm, 5 μm. Chromatographic conditions were as follow: eluent (A) water/TFA (99.9:0.1, V/V), (B) acetonitrile/water/TFA (90:9.9:0.1, V/V). The linear gradient was started at 80% A, graded to 68% for 2 min and then was kept at 68% for 17 min finally grading to 0% A for 5 min. The flow rate was 10 mL/min and the column was at room temperature. […]
For identification of Ia and its metabolite in Wistar rat brain, samples were analyzed using a 4800plus MALDI-TOF/TOF (AB Sciex) mass spectrometer in the positive reflector MS and MS/MS modes with 3200 laser shots per spectrum and data was collected using the 4000 Series Explorer Software v.3.5.3 (Applied Biosystems). […]

[3] = in vivo pharmacokinetic study in mice after intravenous Ia; settings: for detection in brain samples: after intravenous Ia 0.53 mg/kg, HPLC-FLU and LC-MS
in vitro = in vitro ADME, mice; settings: mouse, brain homogenate, t1/2 brain
Experimental: An assay for in vitro metabolic stability was accomplished in order to test the influence of N-terminal acylation on the metabolization profile of the compounds. Therefore, compounds were prepared at 50 μM in phosphate-buffered saline (PBS) with 2% DMSO. An amount of 10 μL of the solution was added to human serum (40 μL) or to 10% of mice brain homogenate in PBS with 0.5% Triton X-100 (40 μL). All compounds were tested using the same biological samples of human serum and mice brain homogenate to ensure identical deactivation conditions. The solutions were incubated during different time periods at 37° C., after which metabolization was stopped by adding one volume of acetonitrile. Precipitated serum and brain proteins were removed by centrifugation at 14 000g for 10 min. […] The remaining peptide in the supernatant was quantified by HPLC-FLU (Merck Hitachi, Elite LaChrom), (exλ=255 nm and emλ=285 nm, to detect compounds containing phenylalanine, and exλ=275 nm and emλ=307 nm whenever tyrosine is present). Chromatographic conditions were as described for determination of enzyme activities. A calibration curve was built for each compound, and the decay in the concentration of the peptide in the incubated samples was followed until approximately 50% decay. The metabolization kinetics of the synthetic peptides followed a monophasic behaviour in vitro.

[4] = target: T2, BACE-1 (human, recombinant) (Homo sapiens, UniProt P56817); experiment: BACE-1 activity assay (fluorogenic substrate, HPLC-FLU); type: biochemical
T2 construct: purchased Sigma-Aldrich
T2 sequence (P56817 46-501): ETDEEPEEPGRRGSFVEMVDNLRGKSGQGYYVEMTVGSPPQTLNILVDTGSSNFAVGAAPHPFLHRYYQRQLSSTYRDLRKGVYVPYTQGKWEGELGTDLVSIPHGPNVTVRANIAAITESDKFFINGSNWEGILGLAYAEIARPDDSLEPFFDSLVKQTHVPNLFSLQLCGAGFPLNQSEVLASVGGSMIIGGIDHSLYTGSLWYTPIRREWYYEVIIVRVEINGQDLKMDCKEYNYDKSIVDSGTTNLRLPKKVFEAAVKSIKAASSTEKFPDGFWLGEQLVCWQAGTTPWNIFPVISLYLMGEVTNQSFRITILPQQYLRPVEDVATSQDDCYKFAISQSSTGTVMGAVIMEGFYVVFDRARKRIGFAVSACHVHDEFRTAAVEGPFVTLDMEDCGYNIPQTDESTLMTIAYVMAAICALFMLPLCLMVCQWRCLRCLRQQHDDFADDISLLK
Source text: The program started at 90% A for two min, graded to 70% A during ten min and finally to 0% A during two min.

[5] = mouse, in vivo, iv
[6] = pro-BACE-1, pH 4.5, 37° C., mean value ± standard deviation, n = 3, read-out: Ki BACE-1

With `CC(=O)N[C@@H](CCC(=O)O)C(=O)N[C@@H](CC(C)C)C(=O)N[C@@H](CC(=O)O)C(=O)N[C@@H](CC(C)C)[C@@H](O)C[C@@H](C)C(=O)N[C@H](C(=O)N[C@@H](Cc1ccccc1)C(=O)N[C@@H](Cc1ccc(O)cc1)C(=O)N[C@@H](C)C(=O)N[C@@H](CCC(=O)O)C(=O)N[C@@H](CC(=O)O)C(N)=O)C(C)C` [Ia] (Ac-ELD[LeuΨ(S-CHOHCH2)Ala]VFYAED-NH2) as the compound, how does the Ki [1] read?
The Ki was 18.3 ± 0.5 nM.

What about the “detection in rat cortex” value [2] of the same compound?
Its value is “not detected”.

What about the “detection in serum samples” value [2] of the same compound?
The value was “detected”.

And the “detection in brain samples” value [3]?
Its value is “could not be detected”.

What about the “detection in serum samples” value ([3]; half an hour after intravenous Ia 0.53 mg/kg, HPLC-FLU) of the same compound?
The value was “not detected”.

What about the half-life at 10 µM (in vitro) of the same compound?
The half-life at 10 µM was 204 min.

What about the Ki [4, 6] of the same compound?
The Ki was 2 ± 0.6 nM.

Which Ki [1] does the source give for `CC(C)C[C@H](NC(=O)[C@@H](N)CCC(=O)O)C(=O)N[C@@H](CC(=O)O)C(=O)N[C@@H](CC(C)C)[C@@H](O)C[C@@H](C)C(=O)N[C@H](C(=O)N[C@@H](Cc1ccccc1)C(=O)N[C@@H](Cc1ccc(O)cc1)C(=O)N[C@@H](C)C(=O)N[C@@H](CCC(=O)O)C(=O)N[C@@H](CC(=O)O)C(N)=O)C(C)C` [Ic] (H-ELD[LeuΨ(S-CHOHCH2)Ala]VFYAED-NH2) here?
The Ki was 14.2 ± 2.2 nM.

What about the half-life at 10 µM (in vitro) of the same compound?
Its half-life at 10 µM is 138 ± 6 min.

What about the Ki [4] of the same compound?
Its Ki is 2 ± 0.1 nM.

And the Ki [4, 6]?
The Ki was 1.9 ± 0.2 nM.

Which Ki [1] does the source give for `CC(C)C[C@H](NC(=O)[C@@H](N)CCC(=O)O)C(=O)N[C@@H](CC(=O)O)C(=O)N[C@@H](CC(C)C)[C@@H](O)C[C@@H](C)C(=O)N[C@H](C(=O)N[C@@H](Cc1ccccc1)C(=O)N[C@@H](Cc1ccccc1)C(=O)N[C@@H](C)C(=O)N[C@@H](CCC(=O)O)C(=O)N[C@@H](CC(=O)O)C(N)=O)C(C)C` [Id] (H-ELD[LeuΨ(S-CHOHCH2)Ala]VFFAED-NH2) here?
The Ki was 7.3 ± 0.9 nM.

What about the Ki [4, 6] of the same compound?
The Ki was 2 ± 0.1 nM.

What does the source list for `CC(C)C[C@H](NC(=O)[C@@H](N)CCC(=O)O)C(=O)N[C@@H](CC(=O)O)C(=O)N[C@@H](CC(C)C)[C@@H](O)C[C@@H](C)C(=O)N[C@H](C(=O)N[C@@H](Cc1ccccc1)C(=O)N[C@@H](Cc1ccc(O)cc1)C(=O)N[C@@H](C)C(=O)N[C@@H](CCC(=O)O)C(=O)N[C@@H](CC(=O)O)C(=O)O)C(C)C` [Ig] (H-ELD[LeuΨ(S-CHOHCH2)Ala]VFYAED-OH)?
Ki [1]: 12.7 ± 1.9 nM; detection in rat cortex [2]: detected; detection in serum samples [2]: detected; detection in brain samples [3]: found within therapeutic concentrations; half-life at 10 µM (in vitro): 360 ± 18 min; concentration in mice brain [5]: approximately 20 nM; Ki [4, 6]: 1.7 ± 0.2 nM

What does the source list for `CC(C)C[C@H](NC(=O)[C@@H](N)CCC(=O)O)C(=O)N[C@@H](CC(=O)O)C(=O)N[C@@H](CC(C)C)[C@@H](O)C[C@@H](C)C(=O)N[C@H](C(=O)N[C@@H](CCC(=O)O)C(=O)N[C@@H](Cc1ccccc1)C(=O)O)C(C)C` [OM00-3, reference compound] (H-ELD[LeuΨ(S-CHOHCH2)Ala]VEF-OH)?
Ki [1]: 3 ± 0.3 nM; half-life at 10 µM (in vitro): 348 ± 42 min
